Data: patent US5187103A, “Colorimetric method and reagent for the assay of lithium in a test sample” (Miles Inc., priority 1991, dated 1993)

Tests used:
[1] = Ion selectivity and sensitivity of larger cavity cryptand analogs
[2] = pKa in 10% DEGMEE-water, determined spectrophotometrically (Table II); assay type: physicochemical; conditions: for pKa: spectrophotometric
[3] = UV-VIS spectra of the cryptand in complexation with various ions (Table I); assay type: physicochemical
Protocol: (§1) The UV-VIS spectra of p-nitrophenylazophenol (1.1.0) cryptand in complexation with various ions, i.e. Na^+ K^+, and Li^+, were determined in 1 to 2×10^-4 M solutions of the cryptand in 2 to 50% volume to volume (v/v) DEGMEE in water. A 1×10^-2 M stock solution of the cryptand was prepared in DEGMEE. Typically, the solutions were prepared as follows: for the spectral characteristics in 10% v/v DEGMEE, 0.2 ml of the stock solution was added to 0.8 ml DEGMEE. The diluted cryptand was quantitatively transferred to 9.0 ml of the appropriate reagent and mixed. 1N HCl was used to obtain the acid form (HL) and 1M TMAOH for the base form of the cryptand which is designated in the following tables as L. Tne resulting solutions were scanned from 700 to 300 nm on a Beckman DU-8 spectrophotometer. The spectra of the cation complexes of p-nitrophenylazophenol (1.1.0) cryptand in 10% v/v DEGMEE/1M TMAOH were obtained by adding 0.02 ml LiCl, KCl, NaCl, all 1N to their respective cuvettes containing 2 ml of reagent and scanned from 700 to 300 nm.
Table I records the wavelength maxima and absorptivities of p-nitrophenylazophenol (1.1.0) cryptand when exposed to Na^+, K^+ and Li^+ ions in 10% v/v DEGMEE.

[4] = Effect of organic solvent (DEGMEE) concentration on sensitivity and selectivity; conditions: 2.5% DEGMEE
Protocol: as §1
However, high concentration of solvent also affects the selectivity; at 25% DEGMEE, interference by 140 mM Na^+ corresponds to 0.1 mM Li^+, which is not acceptable for clinical purposes. The selectivity requirements of the lithium assay are high, in certain cases where the concentration of lithium is near 0.1 mM, the molar ratio of Li^+ :Na^+ is about 1:1500. […]

[5] = Effect of pH on response to cations in 10% v/v DEGMEE (Table III); assay type: physicochemical
Protocol: as §1
A zwitterionic buffer CAPS was used (Table III).

[6] = Effect of non-ionic surfactant on wavelength maxima and absorptivities (first Table IV); assay type: physicochemical; conditions: Brij-35 and Triton X-100 at 1% w/v; cryptand and its lithium complex
Source text: Non-ionic surfactants are known to interact with monoazo dyes producing a disturbance of the electronic spectrum.

[7] = Selectivity for Li^+ over Na^+ and other cations (slopes of response curves); conditions: sample to reagent ratio 1:40
Source text: By taking the ratio of the slope of the respective response curves, one obtains approximate selectivity of 4000:1 for Li^+ /Na^+.

[8] = Spectral response to lithium (analytical wavelength); assay type: physicochemical
Protocol: as §1

[9] = 10% v/v DEGMEE, HL in 1N HCl, L and complexes in 1M TMAOH

With `O=[N+]([O-])c1ccc(N=Nc2cc3c(O)c(c2)CCN2CCOCCOCCN(CCOCCOCC2)CC3)cc1` [(2.2.0) cryptand, reference compound] the selectivity and sensitivity ([1]; effect of increased cavity size) was “more selective for potassium over sodium and lithium” and the pKa [2] was 11.1.
With `O=[N+]([O-])c1ccc(N=Nc2cc3c(O)c(c2)CCN2CCOCCN(CCOCC2)CC3)cc1` [HL] the “λmax 1” value [3, 9] was 494 nm, the “λmax 2” value [3, 9] was 363 nm and the “ε 1” value ([3]; absorptivity at λmax 1, 10% v/v DEGMEE) was 8,800 M^-1 cm^-1. For the same molecule, the “ε 2” value ([3]; absorptivity at λmax 2, 10% v/v DEGMEE) was 8,000 M^-1 cm^-1.
With `O=[N+]([O-])c1ccc(N=Nc2cc3c(O)c(c2)CCCN2CCOCCN(CCC3)CCOCC2)cc1` [extended (1.1.0) cryptand] the response to lithium ([1]; extraction mode) was “very good response to lithium in the extraction mode” and the pKa [2] was 11.5.
For `O=[N+]([O-])c1ccc(N=Nc2cc3c(O)c(c2)CCN2CCOCCN(CCOCC2)CC3)cc1` [p-nitrophenylazophenol (1.1.0) cryptand], the “reduction of response to lithium” value [4] was 25%, the “shift and absorptivity change with pH” value [5] was “bathochromic shift with concurrent increase in absorptivity” and the “effect of surfactant on λmax and absorptivities” value [6] was “substantial bathochromic shift of the λmax and an increase in the absorptivities”. The “pKa compared with larger cavity analogs or usual” value [2] was “Higher than usual pKa”, the pKa [2] was 12.6 and the selectivity over sodium [7] was “almost total selectivity over sodium”. The “wavelength maxima and absorptivities of acid form” value ([3]; acid form) was “two wavelength maxima (Table I) of equivalent absorptivities”, the “wavelength of decrease in absorbance with lithium” value [8] was 600 nm and the “wavelength of increase of the lithium complex” value [8] was 534 nm.
